Test results from the NIST ThermoML archive (doi:10.1021/acs.jced.5b00654).
“And” between values parts separate entries of the source, which are not always exact repeats. Equal values may be shown once. Numbers after ± are expanded uncertainties.

Conditions: Fluid (supercritical or subcritical phases); for viscosity: Vibrating wire viscometry; for mass density: Buoyancy - hydrostatic balance with magnetic suspension - one sinker

## CCCC [butane]
348.15 K, 63.3 kPa
  viscosity: 0.008591 ± 0.00084 mPa·s
348.15 K, 337.86 kPa
  mass density: 7.2315 ± 0.025 kg/m3
  viscosity: 0.008603 ± 0.00084 mPa·s
348.15 K, 337.88 kPa
  mass density: 7.2315 ± 0.025 kg/m3
  viscosity: 0.008607 ± 0.00084 mPa·s
348.15 K, 338.38 kPa
  mass density: 7.2445 ± 0.025 kg/m3
  viscosity: 0.008599 ± 0.00084 mPa·s
348.15 K, 340.91 kPa
  mass density: 7.3031 ± 0.025 kg/m3
  viscosity: 0.008599 ± 0.00084 mPa·s
348.15 K, 454.98 kPa
  mass density: 9.9811 ± 0.029 kg/m3
  viscosity: 0.00861 ± 0.00084 mPa·s
348.15 K, 455.21 kPa
  mass density: 9.9833 ± 0.029 kg/m3
  viscosity: 0.00861 ± 0.00084 mPa·s
348.15 K, 516.69 kPa
  mass density: 11.497 ± 0.032 kg/m3
  viscosity: 0.008615 ± 0.00084 mPa·s
348.15 K, 516.76 kPa
  mass density: 11.497 ± 0.032 kg/m3
  viscosity: 0.008618 ± 0.00084 mPa·s
373.13 K, 106.93 kPa
  mass density: 2.0348 ± 0.017 kg/m3
  viscosity: 0.009211 ± 0.00085 mPa·s
373.13 K, 106.95 kPa
  mass density: 2.0363 ± 0.017 kg/m3
  viscosity: 0.009213 ± 0.00085 mPa·s
373.13 K, 106.98 kPa
  mass density: 2.037 ± 0.017 kg/m3
  viscosity: 0.00921 ± 0.00085 mPa·s
373.13 K, 157.77 kPa
  mass density: 3.0215 ± 0.018 kg/m3
  viscosity: 0.009217 ± 0.00085 mPa·s
373.13 K, 916.45 kPa
  mass density: 20.053 ± 0.05 kg/m3 and 20.052 ± 0.05 kg/m3
  viscosity: 0.009329 ± 0.00085 mPa·s and 0.009334 ± 0.00085 mPa·s
373.14 K, 57.69 kPa
  mass density: 1.0901 ± 0.015 kg/m3
  viscosity: 0.009211 ± 0.00085 mPa·s
373.14 K, 57.72 kPa
  mass density: 1.0901 ± 0.015 kg/m3
  viscosity: 0.009214 ± 0.00085 mPa·s
373.14 K, 57.76 kPa
  mass density: 1.0909 ± 0.015 kg/m3
  viscosity: 0.009207 ± 0.00085 mPa·s
373.14 K, 157.75 kPa
  mass density: 3.0215 ± 0.018 kg/m3
  viscosity: 0.00922 ± 0.00085 mPa·s
373.14 K, 210.39 kPa
  mass density: 4.0609 ± 0.019 kg/m3
  viscosity: 0.009225 ± 0.00085 mPa·s
373.14 K, 273.38 kPa
  mass density: 5.3326 ± 0.021 kg/m3
  viscosity: 0.00923 ± 0.00085 mPa·s
373.14 K, 274.72 kPa
  mass density: 5.3593 ± 0.021 kg/m3
  viscosity: 0.009227 ± 0.00085 mPa·s
373.14 K, 493.67 kPa
  mass density: 9.9707 ± 0.029 kg/m3
  viscosity: 0.009255 ± 0.00085 mPa·s
373.14 K, 493.81 kPa
  mass density: 9.9744 ± 0.029 kg/m3
  viscosity: 0.009247 ± 0.00085 mPa·s
373.14 K, 572.54 kPa
  mass density: 11.724 ± 0.032 kg/m3
  viscosity: 0.009263 ± 0.00085 mPa·s
373.14 K, 572.6 kPa
  mass density: 11.728 ± 0.032 kg/m3
  viscosity: 0.009259 ± 0.00085 mPa·s
373.14 K, 669.81 kPa
  mass density: 13.955 ± 0.036 kg/m3
  viscosity: 0.00928 ± 0.00085 mPa·s
373.14 K, 670 kPa
  mass density: 13.959 ± 0.037 kg/m3
  viscosity: 0.009283 ± 0.00085 mPa·s
373.14 K, 751.04 kPa
  mass density: 15.893 ± 0.04 kg/m3
  viscosity: 0.009293 ± 0.00085 mPa·s
373.14 K, 838.34 kPa
  mass density: 18.049 ± 0.044 kg/m3
  viscosity: 0.009315 ± 0.00085 mPa·s
373.14 K, 1095.4 kPa
  mass density: 24.953 ± 0.06 kg/m3
  viscosity: 0.009394 ± 0.00085 mPa·s
373.14 K, 1095.5 kPa
  mass density: 24.958 ± 0.06 kg/m3
  viscosity: 0.00939 ± 0.00085 mPa·s
373.14 K, 1123 kPa
  viscosity: 0.009464 ± 0.00085 mPa·s
373.14 K, 1262.7 kPa
  mass density: 30.019 ± 0.075 kg/m3
  viscosity: 0.009463 ± 0.00085 mPa·s
373.14 K, 1263 kPa
  mass density: 30.031 ± 0.075 kg/m3
373.15 K, 210.37 kPa
  mass density: 4.0602 ± 0.019 kg/m3
  viscosity: 0.009228 ± 0.00085 mPa·s
373.15 K, 344.33 kPa
  mass density: 6.7909 ± 0.024 kg/m3
  viscosity: 0.00923 ± 0.00085 mPa·s
373.15 K, 344.35 kPa
  mass density: 6.7909 ± 0.024 kg/m3
  viscosity: 0.009234 ± 0.00085 mPa·s
373.15 K, 392.71 kPa
  mass density: 7.8028 ± 0.025 kg/m3
  viscosity: 0.009241 ± 0.00085 mPa·s
373.15 K, 439.63 kPa
  mass density: 8.8018 ± 0.027 kg/m3
  viscosity: 0.009247 ± 0.00085 mPa·s
373.15 K, 441.23 kPa
  mass density: 8.8343 ± 0.027 kg/m3
  viscosity: 0.009243 ± 0.00085 mPa·s
373.15 K, 750.55 kPa
  mass density: 15.881 ± 0.04 kg/m3
  viscosity: 0.009298 ± 0.00085 mPa·s
373.15 K, 1366.4 kPa
  mass density: 33.46 ± 0.083 kg/m3
  viscosity: 0.009514 ± 0.00085 mPa·s
373.15 K, 1367.1 kPa
  mass density: 33.484 ± 0.083 kg/m3
  viscosity: 0.009518 ± 0.00085 mPa·s
423.11 K, 2532.5 kPa
  mass density: 59.203 ± 0.16 kg/m3
  viscosity: 0.01157 ± 0.00086 mPa·s
423.12 K, 2534 kPa
  mass density: 59.251 ± 0.16 kg/m3
  viscosity: 0.01158 ± 0.00086 mPa·s
423.13 K, 2535.6 kPa
  mass density: 59.303 ± 0.16 kg/m3
  viscosity: 0.01157 ± 0.00086 mPa·s
423.16 K, 195.54 kPa
  mass density: 3.2893 ± 0.018 kg/m3
  viscosity: 0.0104 ± 0.00085 mPa·s
423.16 K, 195.59 kPa
  mass density: 3.2893 ± 0.018 kg/m3
  viscosity: 0.0104 ± 0.00085 mPa·s
423.17 K, 450.91 kPa
  mass density: 7.7808 ± 0.025 kg/m3
  viscosity: 0.01045 ± 0.00086 mPa·s
423.17 K, 452.37 kPa
  mass density: 7.8076 ± 0.025 kg/m3
  viscosity: 0.01045 ± 0.00086 mPa·s
423.17 K, 1490.2 kPa
  mass density: 29.071 ± 0.074 kg/m3
  viscosity: 0.01078 ± 0.00086 mPa·s
423.17 K, 2272.3 kPa
  mass density: 50.31 ± 0.12 kg/m3
  viscosity: 0.01129 ± 0.00086 mPa·s
423.19 K, 654.26 kPa
  mass density: 11.533 ± 0.032 kg/m3
  viscosity: 0.0105 ± 0.00086 mPa·s
423.19 K, 1490 kPa
  mass density: 29.063 ± 0.074 kg/m3
  viscosity: 0.01078 ± 0.00086 mPa·s
423.19 K, 3006 kPa
  mass density: 79.774 ± 0.26 kg/m3
  viscosity: 0.01234 ± 0.00087 mPa·s
423.2 K, 653.48 kPa
  mass density: 11.519 ± 0.032 kg/m3
  viscosity: 0.01049 ± 0.00086 mPa·s
423.2 K, 2781.1 kPa
  mass density: 69.059 ± 0.2 kg/m3
  viscosity: 0.01191 ± 0.00087 mPa·s
423.2 K, 2781.6 kPa
  mass density: 69.058 ± 0.2 kg/m3
  viscosity: 0.01191 ± 0.00087 mPa·s
423.2 K, 3005.8 kPa
  mass density: 79.773 ± 0.26 kg/m3
  viscosity: 0.01233 ± 0.00087 mPa·s
423.2 K, 3170.2 kPa
  mass density: 89.28 ± 0.32 kg/m3
  viscosity: 0.01273 ± 0.00087 mPa·s
423.24 K, 1016.1 kPa
  mass density: 18.65 ± 0.046 kg/m3
  viscosity: 0.0106 ± 0.00086 mPa·s
423.25 K, 1015.9 kPa
  mass density: 18.648 ± 0.046 kg/m3
  viscosity: 0.01059 ± 0.00086 mPa·s
423.26 K, 884.12 kPa
  mass density: 15.981 ± 0.04 kg/m3
  viscosity: 0.01056 ± 0.00086 mPa·s
423.26 K, 884.38 kPa
  mass density: 15.987 ± 0.04 kg/m3
  viscosity: 0.01055 ± 0.00086 mPa·s
423.28 K, 3171.4 kPa
  mass density: 89.266 ± 0.32 kg/m3
  viscosity: 0.01273 ± 0.00087 mPa·s
423.47 K, 3280.9 kPa
  mass density: 96.663 ± 0.37 kg/m3
  viscosity: 0.01307 ± 0.00088 mPa·s
423.48 K, 3280.8 kPa
  mass density: 96.642 ± 0.37 kg/m3
  viscosity: 0.01306 ± 0.00088 mPa·s
424.21 K, 3176.8 kPa
  mass density: 88.401 ± 0.28 kg/m3
  viscosity: 0.01272 ± 0.00087 mPa·s
424.21 K, 3177 kPa
  mass density: 88.415 ± 0.28 kg/m3
  viscosity: 0.01273 ± 0.00087 mPa·s
428.08 K, 194.36 kPa
  mass density: 3.2322 ± 0.018 kg/m3
  viscosity: 0.01054 ± 0.00086 mPa·s
428.09 K, 194.34 kPa
  mass density: 3.2308 ± 0.018 kg/m3
  viscosity: 0.01053 ± 0.00086 mPa·s
428.09 K, 5149.9 kPa
  mass density: 360.26 ± 0.75 kg/m3
  viscosity: 0.04425 ± 0.0011 mPa·s
428.09 K, 5150.2 kPa
  mass density: 360.25 ± 0.75 kg/m3
